Data taken from ChEMBL document CHEMBL4825673, “Total and Semisyntheses of Polymyxin Analogues with 2-Thr or 10-Thr Modifications to Decipher the Structure-Activity Relationship and Improve the Antibacterial Activity” (J Med Chem, 2021).
≈ marks a conversion by molar mass, not a printed value. Positions of bridges follow the written chain, without caps; N, C: chain ends. Non-standard residues stand in square brackets, D forms with d. Residues, ends and D or L forms follow the SMILES beside them. *: point of attachment. Octanoyl = CCCCCCCC(=O)*; Dab = NCC[C@H](N)C(=O)O

Columns and labels:
Format in all cases: functional
Conditions in all cases: read-out: MIC100
[1] = test system: Pseudomonas aeruginosa; experiment: Antibacterial activity against Pseudomonas aeruginosa assessed as inhibition of bacterial growth incubated for 24 hrs by broth microdilution method
[2] = test system: Pseudomonas aeruginosa; experiment: Antibacterial activity against Pseudomonas aeruginosa PAO1 assessed as inhibition of bacterial growth incubated for 24 hrs by broth microdilution method
[3] = test system: Escherichia coli; experiment: Antibacterial activity against Escherichia coli assessed as inhibition of bacterial growth incubated for 24 hrs by broth microdilution method
[4] = test system: Acinetobacter baumannii; experiment: Antibacterial activity against Acinetobacter baumannii assessed as inhibition of bacterial growth incubated for 24 hrs by broth microdilution method
[5] = test system: Klebsiella pneumoniae; experiment: Antibacterial activity against Klebsiella pneumoniae assessed as inhibition of bacterial growth incubated for 24 hrs by broth microdilution method
[6] = test system: Moraxella catarrhalis; experiment: Antibacterial activity against Moraxella catarrhalis assessed as inhibition of bacterial growth incubated for 24 hrs by broth microdilution method

SMILES	MIC [1] [µg/mL]	MIC [2] [µg/mL]	MIC [3] [µg/mL]	MIC [4] [µg/mL]	MIC [5] [µg/mL]	MIC [6] [µg/mL]
CCCCCCCC(=O)N[C@@H](CCN)C(=O)N[C@@H](CCSC)C(=O)N[C@@H](CCN)C(=O)N[C@H]1CCNC(=O)[C@H]([C@@H](C)O)NC(=O)[C@H](CCN)NC(=O)[C@H](CCN)NC(=O)[C@H](CC(C)C)NC(=O)[C@@H](Cc2ccccc2)NC(=O)[C@H](CCN)NC1=O	0.125 (≈ 0.102 µM)	2 (≈ 1.64 µM)	4 (≈ 3.28 µM)	2 (≈ 1.64 µM)	> 64	8 (≈ 6.56 µM)
CC[C@H](C)CCCCC(=O)N[C@@H](CCN)C(=O)N[C@H](C(=O)N[C@@H](CCN)C(=O)N[C@H]1CCNC(=O)[C@H]([C@@H](C)O)NC(=O)[C@H](CCN)NC(=O)[C@H](CCN)NC(=O)[C@H](CC(C)C)NC(=O)[C@@H](Cc2ccccc2)NC(=O)[C@H](CCN)NC1=O)[C@@H](C)OC(=O)CN	0.125 (≈ 0.0992 µM)	4 (≈ 3.17 µM)	0.25 (≈ 0.198 µM)	0.125 (≈ 0.0992 µM)	0.5 (≈ 0.397 µM)	> 64
CC(C)CCCCC(=O)N[C@@H](CCN)C(=O)N[C@H](C(=O)N[C@@H](CCN)C(=O)N[C@H]1CCNC(=O)[C@H]([C@@H](C)O)NC(=O)[C@H](CCN)NC(=O)[C@H](CCN)NC(=O)[C@H](CC(C)C)NC(=O)[C@@H](Cc2ccccc2)NC(=O)[C@H](CCN)NC1=O)[C@@H](C)OC(=O)[C@@H](N)C(C)C	0.5 (≈ 0.388 µM)	2 (≈ 1.55 µM)	0.5 (≈ 0.388 µM)	1 (≈ 0.776 µM)	4 (≈ 3.1 µM)	> 32
CC(C)CCCCC(=O)N[C@@H](CCN)C(=O)N[C@@H](Cc1ccccc1)C(=O)N[C@@H](CCN)C(=O)N[C@H]1CCNC(=O)[C@H]([C@@H](C)O)NC(=O)[C@H](CCN)NC(=O)[C@H](CCN)NC(=O)[C@H](CC(C)C)NC(=O)[C@@H](Cc2ccccc2)NC(=O)[C@H](CCN)NC1=O	0.5 (≈ 0.405 µM)	4 (≈ 3.24 µM)	4 (≈ 3.24 µM)	16 (≈ 12.9 µM)	> 32	4 (≈ 3.24 µM)
CCCCCCCC(=O)N[C@@H](CCN)C(=O)N[C@H](C(=O)N[C@@H](CCN)C(=O)N[C@H]1CCNC(=O)[C@H](CS)NC(=O)[C@H](CCN)NC(=O)[C@H](CCN)NC(=O)[C@H](CC(C)C)NC(=O)[C@@H](Cc2ccccc2)NC(=O)[C@H](CCN)NC1=O)[C@@H](C)O	0.06 (≈ 0.0504 µM)	2 (≈ 1.68 µM)	2 (≈ 1.68 µM)	0.25 (≈ 0.21 µM)	2 (≈ 1.68 µM)	4 (≈ 3.36 µM)
CC(C)CCCCC(=O)N[C@@H](CCN)C(=O)N[C@H](C(=O)N[C@@H](CCN)C(=O)N[C@H]1CCNC(=O)[C@H]([C@@H](C)O)NC(=O)[C@H](CCN)NC(=O)[C@H](CCN)NC(=O)[C@H](CC(C)C)NC(=O)[C@@H](Cc2ccccc2)NC(=O)[C@H](CCN)NC1=O)[C@@H](C)OC(=O)[C@H](C)N	0.25 (≈ 0.198 µM)	1 (≈ 0.793 µM)	0.25 (≈ 0.198 µM)	0.125 (≈ 0.0992 µM)	2 (≈ 1.59 µM)	> 32
CC(C)CCCCC(=O)N[C@@H](CCN)C(=O)N[C@H](C(=O)N[C@@H](CCN)C(=O)N[C@H]1CCNC(=O)[C@H]([C@@H](C)O)NC(=O)[C@H](CCN)NC(=O)[C@H](CCN)NC(=O)[C@H](CC(C)C)NC(=O)[C@@H](Cc2ccccc2)NC(=O)[C@H](CCN)NC1=O)[C@@H](C)OC(=O)[C@@H](N)Cc1c[nH]cn1	0.5 (≈ 0.377 µM)	2 (≈ 1.51 µM)	0.5 (≈ 0.377 µM)	0.125 (≈ 0.0942 µM)	4 (≈ 3.02 µM)	8 (≈ 6.03 µM)
CC(C)CCCCC(=O)N[C@@H](CCN)C(=O)N[C@H](C(=O)N[C@@H](CCN)C(=O)N[C@H]1CCNC(=O)[C@H]([C@@H](C)O)NC(=O)[C@H](CCN)NC(=O)[C@H](CCN)NC(=O)[C@H](CC(C)C)NC(=O)[C@@H](Cc2ccccc2)NC(=O)[C@H](CCN)NC1=O)[C@@H](C)OC(=O)[C@@H](N)CCCCN	0.25 (≈ 0.19 µM)	2 (≈ 1.52 µM)	0.5 (≈ 0.379 µM)	0.125 (≈ 0.0949 µM)	4 (≈ 3.04 µM)	> 64
CC(C)CCCCC(=O)N[C@@H](CCN)C(=O)N[C@H](C(=O)N[C@@H](CCN)C(=O)N[C@H]1CCNC(=O)[C@H]([C@@H](C)O)NC(=O)[C@H](CCN)NC(=O)[C@H](CCN)NC(=O)[C@H](CC(C)C)NC(=O)[C@@H](Cc2ccccc2)NC(=O)[C@H](CCN)NC1=O)[C@@H](C)OC(=O)[C@@H](N)CS	0.25 (≈ 0.193 µM)	2 (≈ 1.55 µM)	0.25 (≈ 0.193 µM)	0.125 (≈ 0.0967 µM)	1 (≈ 0.774 µM)	32 (≈ 24.8 µM)
CC[C@H](C)CCCCC(=O)N[C@@H](CCN)C(=O)N[C@H](C(=O)N[C@@H](CCN)C(=O)N[C@H]1CCNC(=O)[C@H]([C@@H](C)O)NC(=O)[C@H](CCN)NC(=O)[C@H](CCN)NC(=O)[C@H](CC(C)C)NC(=O)[C@@H](Cc2ccccc2)NC(=O)[C@H](CCN)NC1=O)[C@@H](C)OC(=O)[C@@H](N)CCC(N)=O	0.125 (≈ 0.0939 µM)	2 (≈ 1.5 µM)	0.25 (≈ 0.188 µM)	0.06 (≈ 0.0451 µM)	2 (≈ 1.5 µM)	> 32
CSCC[C@H](N)C(=O)O[C@H](C)[C@H](NC(=O)[C@H](CCN)NC(=O)CCCCC(C)C)C(=O)N[C@@H](CCN)C(=O)N[C@H]1CCNC(=O)[C@H]([C@@H](C)O)NC(=O)[C@H](CCN)NC(=O)[C@H](CCN)NC(=O)[C@H](CC(C)C)NC(=O)[C@@H](Cc2ccccc2)NC(=O)[C@H](CCN)NC1=O	0.125 (≈ 0.0946 µM)	2 (≈ 1.51 µM)	0.25 (≈ 0.189 µM)	0.125 (≈ 0.0946 µM)	2 (≈ 1.51 µM)	> 16
CC(C)CCCCC(=O)N[C@@H](CCN)C(=O)N[C@H](C(=O)N[C@@H](CCN)C(=O)N[C@H]1CCNC(=O)[C@H]([C@@H](C)O)NC(=O)[C@H](CCN)NC(=O)[C@H](CCN)NC(=O)[C@H](CC(C)C)NC(=O)[C@@H](Cc2ccccc2)NC(=O)[C@H](CCN)NC1=O)[C@@H](C)OC(=O)[C@@H](N)CCCNC(=N)N	0.5 (≈ 0.372 µM)	2 (≈ 1.49 µM)	0.5 (≈ 0.372 µM)	0.25 (≈ 0.186 µM)	1 (≈ 0.743 µM)	> 16
CCCCCCCC(=O)N[C@@H](CCN)C(=O)N[C@H](C(=O)N[C@@H](CCN)C(=O)N[C@H]1CCNC(=O)[C@H](CC(C)C)NC(=O)[C@H](CCN)NC(=O)[C@H](CCN)NC(=O)[C@H](CC(C)C)NC(=O)[C@@H](Cc2ccccc2)NC(=O)[C@H](CCN)NC1=O)[C@@H](C)O (Octanoyl-[Dab]T[Dab][Dab][Dab][dF]L[Dab][Dab]L; lactam 4-C)	0.25 (≈ 0.208 µM)	4 (≈ 3.33 µM)	4 (≈ 3.33 µM)	2 (≈ 1.66 µM)	2 (≈ 1.66 µM)	2 (≈ 1.66 µM)
CC(C)CCCCC(=O)N[C@@H](CCN)C(=O)N[C@H](C(=O)N[C@@H](CCN)C(=O)N[C@H]1CCNC(=O)[C@H]([C@@H](C)O)NC(=O)[C@H](CCN)NC(=O)[C@H](CCN)NC(=O)[C@H](CC(C)C)NC(=O)[C@@H](Cc2ccccc2)NC(=O)[C@H](CCN)NC1=O)[C@@H](C)OC(=O)CN	0.25 (≈ 0.201 µM)	2 (≈ 1.6 µM)	0.25 (≈ 0.201 µM)	0.06 (≈ 0.0481 µM)	1 (≈ 0.802 µM)	> 16
CC(C)CCCCC(=O)N[C@@H](CCN)C(=O)N[C@H](C(=O)N[C@@H](CCN)C(=O)N[C@H]1CCNC(=O)[C@H]([C@@H](C)O)NC(=O)[C@H](CCN)NC(=O)[C@H](CCN)NC(=O)[C@H](CC(C)C)NC(=O)[C@@H](Cc2ccccc2)NC(=O)[C@H](CCN)NC1=O)[C@@H](C)OC(=O)[C@@H](N)Cc1c[nH]c2ccccc12	0.125 (≈ 0.0909 µM)	2 (≈ 1.45 µM)	0.25 (≈ 0.182 µM)	0.06 (≈ 0.0436 µM)	2 (≈ 1.45 µM)	> 32
CC(C)CCCCC(=O)N[C@@H](CCN)C(=O)N[C@H](C(=O)N[C@@H](CCN)C(=O)N[C@H]1CCNC(=O)[C@H]([C@@H](C)O)NC(=O)[C@H](CCN)NC(=O)[C@H](CCN)NC(=O)[C@H](CC(C)C)NC(=O)[C@@H](Cc2ccccc2)NC(=O)[C@H](CCN)NC1=O)[C@@H](C)OC(=O)[C@@H](N)CO	0.25 (≈ 0.196 µM)	1 (≈ 0.783 µM)	0.25 (≈ 0.196 µM)	0.125 (≈ 0.0979 µM)	1 (≈ 0.783 µM)	32 (≈ 25.1 µM)
CC(C)C[C@@H]1NC(=O)[C@@H](Cc2ccccc2)NC(=O)[C@H](CCN)NC(=O)[C@@H](NC(=O)[C@H](CCN)NC(=O)[C@@H](NC(=O)[C@H](CCN)NC(=O)CCCCCCCN)[C@@H](C)O)CCNC(=O)[C@H]([C@@H](C)O)NC(=O)[C@H](CCN)NC(=O)[C@H](CCN)NC1=O	0.125 (≈ 0.104 µM)	1 (≈ 0.83 µM)	8 (≈ 6.64 µM)	2 (≈ 1.66 µM)	> 32	> 32
CC(C)CCCCC(=O)N[C@@H](CCN)C(=O)N[C@H](C(=O)N[C@@H](CCN)C(=O)N[C@H]1CCNC(=O)[C@H]([C@@H](C)OC(=O)CN)NC(=O)[C@H](CCN)NC(=O)[C@H](CCN)NC(=O)[C@H](CC(C)C)NC(=O)[C@@H](Cc2ccccc2)NC(=O)[C@H](CCN)NC1=O)[C@@H](C)OC(=O)CN	0.25 (≈ 0.192 µM)	1 (≈ 0.767 µM)	0.25 (≈ 0.192 µM)	0.125 (≈ 0.0959 µM)	1 (≈ 0.767 µM)	> 64
CC(C)CCCCC(=O)N[C@@H](CCN)C(=O)N[C@H](C(=O)N[C@@H](CCN)C(=O)N[C@H]1CCNC(=O)[C@H]([C@@H](C)O)NC(=O)[C@H](CCN)NC(=O)[C@H](CCN)NC(=O)[C@H](CC(C)C)NC(=O)[C@@H](Cc2ccccc2)NC(=O)[C@H](CCN)NC1=O)[C@@H](C)OC(=O)[C@@H](N)CC(C)C	0.125 (≈ 0.096 µM)	4 (≈ 3.07 µM)	0.25 (≈ 0.192 µM)	0.06 (≈ 0.0461 µM)	1 (≈ 0.768 µM)	> 16
CC(C)CCCCC(=O)N[C@@H](CCN)C(=O)N[C@H](C(=O)N[C@@H](CCN)C(=O)N[C@H]1CCNC(=O)[C@H]([C@@H](C)O)NC(=O)[C@H](CCN)NC(=O)[C@H](CCN)NC(=O)[C@H](CC(C)C)NC(=O)[C@@H](Cc2ccccc2)NC(=O)[C@H](CCN)NC1=O)[C@@H](C)OC(=O)[C@@H](N)Cc1ccccc1	0.25 (≈ 0.187 µM)	4 (≈ 2.99 µM)	0.5 (≈ 0.374 µM)	0.25 (≈ 0.187 µM)	0.5 (≈ 0.374 µM)	> 32
CC[C@H](C)CCCCC(=O)N[C@@H](CCN)C(=O)N[C@H](C(=O)N[C@@H](CCN)C(=O)N[C@H]1CCNC(=O)[C@H]([C@@H](C)O)NC(=O)[C@H](CCN)NC(=O)[C@H](CCN)NC(=O)[C@H](CC(C)C)NC(=O)[C@@H](Cc2ccccc2)NC(=O)[C@H](CCN)NC1=O)[C@@H](C)OC(=O)[C@@H](N)CCC(=O)O		1 (≈ 0.75 µM)				
